Data on 9 sequences can be found in paper PMC11764585, “Hybridization Design and High-Throughput Screening of Peptides with Immunomodulatory and Antioxidant Activities” (International Journal of Molecular Sciences, 2025).

The subject of one assay is IL-1β. The assay is described as follows: ELISA of IL-1β in RAW 264.7 culture supernatant. Conditions: RAW 264.7 cells, peptide 100 μg/mL, 24 h, vs CON group. The class given is cell-based, mouse. The method, then:
(§1) RAW 264.7 macrophages (2 × 10^6 cells/well) were seeded in 6-well plates and incubated for 12 h. Hybrid peptides and parent peptides were added to achieve a final concentration of 100 μg/mL, LPS (100 ng/mL) as a positive control. After 24 h of incubation, the culture supernatants were collected, and the levels of TNF-α, IL-6, and IL-1β were measured using ELISA kits according to the manufacturer’s instructions (Solarbio, Beijing, China).
Background: In an ELISA, binding on a coated surface is turned into a signal by an enzyme label.

Another assay concerns IL-6. The assay is described as follows: ELISA of IL-6 in RAW 264.7 culture supernatant. The format is cell-based, mouse. Conditions: RAW 264.7 cells, peptide 100 μg/mL, 24 h, vs CON group. The method, then:
as §1

For the next assay, the system named is TNF-α. The assay is described as follows: ELISA of TNF-α in RAW 264.7 culture supernatant. The class given is cell-based, mouse. Conditions: RAW 264.7 cells, peptide 100 μg/mL, 24 h, vs CON group. The method, then: as §1
Another assay has as its system RAW-Lucia NF-κB cells. In words: NF-κB luciferase reporter assay. The class given is cell-based, mouse. The settings on record: peptide 100 μg/mL, 12 h, luminescence, p < 0.05 vs control group. The text has this:
(§2) The ARE sequences and NF-κB element sequences are referenced in [52, 54]. Based on the sequence information, plasmids pCD-ARE-puro and pCDH-NF-κB-puro were constructed. These plasmids, along with pMD2.G and psPAX2, were transfected into HEK293T cells using a three-plasmid virus packaging system to produce viruses. The virus supernatants were then used to infect IPEC-J2 or RAW 264.7 cells, followed by positive clone screening with Puromycin. For the testing of stable cell lines, tBHQ was used for IPEC-J2-Lucia ARE cells and LPS was used for RAW-Lucia NF-κB cells.
(§3) Candidate peptides (100 μg/mL) were incubated with RAW-Lucia NF-κB or IPEC-J2-Lucia ARE cells (3 × 10⁵ cells/well) in 96-well plates for 12 h. LPS (100 ng/mL) was used as the positive control for the RAW-Lucia NF-κB cells and tBHQ (10 μM) was used as the positive control for the IPEC-J2-Lucia ARE cells. Subsequently, 15 μL of the culture supernatant was mixed with 50 μL of detection buffer (50 mM HEPES, pH 7.0; 50 mM NaCl; 0.05% CHAPS; 10 mM EDTA; and 1 μM coelenterazine). Luminescence was measured using a multimode plate reader, and relative luminescence units (RLUs) were calculated.
(A reporter such as luciferase makes a cellular process visible.)

Another assay concerns IPEC-J2-Lucia ARE cells. The assay is described as follows: ARE luciferase reporter assay. The class given is cell-based. The settings on record: peptide 100 μg/mL, 12 h, luminescence.
Description: as §2, §3

Another assay has as its system HepG2 cells. In words: H2O2-induced oxidative damage model in HepG2 cells. The class given is cell-based. The settings on record: peptide 100 ng/mL pre-incubation 2 h, then H2O2 650 μM 6 h; for Protective effect against H2O2-induced oxidative damage (result in words): CCK-8 viability, vs model group. The protocol:
HepG2 cells (2 × 10^5 cells/well) were seeded into 96-well plates and incubated overnight at 37 °C with 5% CO2. The supernatant was removed, and hybrid or parent peptides were added at a final concentration of 100 ng/mL for 2 h. H2O2 (Sigma-Aldrich, St. louis, MO, USA) was then added to a final concentration of 650 μM and the cells were further incubated for 6 h. Cell viability was assessed using the CCK-8 assay.

Turning to “EVVEEAYGPSSYGYG [TbY, hybrid peptide of parent peptides Tb and Y]”, the “Expression of IL-1β (result in words)” value with IL-1β is on record as “significantly upregulated”. In addition, the “Expression of IL-6 (result in words)” value in the assay with IL-6 is given as “significantly upregulated”. Besides, in the assay on TNF-α, the “Expression of TNF-α (result in words)” value is reported as “significantly upregulated”. For the same sequence, the “Activation of the NF-κB signaling pathway (result in words)” value (shortened to “Activation”) in the assay with RAW-Lucia NF-κB cells is given as “significantly activated”.

With “KEKKEVVEYGPSSYGYG [TaY, hybrid peptide of parent peptides Ta and Y]”, the “Expression of IL-1β (result in words)” value in the assay on IL-1β is “significantly upregulated”. Besides, the “Stimulation of the ARE pathway (result in words)” value (“Stimulation of the ARE pathway” below) with IPEC-J2-Lucia ARE cells is given as “stimulate the ARE pathway”. Moreover, the “Expression of IL-6 (result in words)” value with IL-6 was “significantly upregulated”. Further, in the assay on TNF-α, the “Expression of TNF-α (result in words)” value is given as “significantly upregulated”. Further, the “Protective effect against H2O2-induced oxidative damage (result in words)” value (shortened to “Protective effect”) in the assay on HepG2 cells is “significant differences compared to the model group”.

Regarding “QLNWDRKDVY [MP, hybrid peptide of parent peptides M and P]”, the “Expression of IL-1β (result in words)” value in the assay with IL-1β is reported as “significantly upregulated”. Also, the “Stimulation of the ARE pathway” value in the assay on IPEC-J2-Lucia ARE cells was “stimulate the ARE pathway”. Besides, in the assay with IL-6, the “Expression of IL-6 (result in words)” value is on record as “significantly upregulated”. Further, the “Expression of TNF-α (result in words)” value with TNF-α is “significantly upregulated”. In addition, the “Protective effect” value in the assay with HepG2 cells was “significant differences compared to the model group”.

In the case of “RGPPPRKDVY [RP, hybrid peptide of parent peptides R and P]”, the “Expression of IL-1β (result in words)” value in the assay with IL-1β was “significantly upregulated”. For the same sequence, in the assay with IL-6, the “Expression of IL-6 (result in words)” value was “significantly upregulated”. Further, the “Expression of TNF-α (result in words)” value with TNF-α was “significantly upregulated”. Further, the “Activation” value in the assay on RAW-Lucia NF-κB cells is “significantly activated”.

With “RKDVYRGPPP [PR, hybrid peptide of parent peptides P and R]”, the “Expression of IL-1β (result in words)” value in the assay on IL-1β is “significantly upregulated”. Besides, the “Expression of IL-6 (result in words)” value with IL-6 was “significantly upregulated”. Further, the “Expression of TNF-α (result in words)” value in the assay on TNF-α was “significantly upregulated”. Besides, the “Activation” value in the assay with RAW-Lucia NF-κB cells is reported as “significantly activated”.

On to “RKDVYYGPSSYGYG [PY, hybrid peptide of parent peptides P and Y]”, for which the “Stimulation of the ARE pathway” value in the assay on IPEC-J2-Lucia ARE cells is on record as “stimulate the ARE pathway”. Also, the “Protective effect” value in the assay on HepG2 cells is listed as “significant differences compared to the model group”.

Take “YGPSSYGYGEVVEEA [YTb, hybrid peptide of parent peptides Y and Tb]”: the “Expression of IL-1β (result in words)” value with IL-1β is listed as “particularly upregulated”. For the same sequence, the “Expression of IL-6 (result in words)” value in the assay with IL-6 is given as “particularly upregulated”.

“YGPSSYGYGKEKKEVVE [YTa, hybrid peptide of parent peptides Y and Ta]”: the “Expression of IL-6 (result in words)” value with IL-6 is “significantly increased”. In the assay on HepG2 cells (CCK-8), the “Increase of HepG2 cell viability compared to the H2O2-treated group” value is 12%. Further, the “Protective effect” value in the assay with HepG2 cells was “significant differences compared to the model group”. Besides, the “Activation” value in the assay with RAW-Lucia NF-κB cells is reported as “significantly activated”.

Turning to “YGPSSYGYGRKDVY [YP, hybrid peptide of parent peptides Y and P]”, in the assay with IPEC-J2-Lucia ARE cells, the “Stimulation of the ARE pathway” value was “stimulate the ARE pathway”.
